Assays:
CD235+ erythroblasts [1] = experiment: CD235+ erythroid expansion of differentiating human cord blood CD34+ progenitors (shRPS19/shRPL11 DBA models), flow cytometry; assay type: cell-based
c-Myb [2] = experiment: c-Myb protein and phosphorylation by Western blot after p53 activation in Kp53A1 cells; assay type: cell-based, human
c-Myb [3] = experiment: NLK kinase and ubiquitination assays with c-Myb as substrate, Kp53A1 cells; assay type: cell-based, human
Description: FIG. 4. NLK phosphorylation of c-Myb results in ubiquitination and proteasome degradation. Fetal liver CD34+ progenitors transduced with shRNA against luciferase (shLuc) or RPS19 (shRPS19) in conjunction with siRNA against NLK (siNLK) or a non-targeting sequence (NT). Cells were differentiated for 5 days and split into three aliquots. One aliquot was lysed and probed for c-Myb, NLK, RPS19 and GAPDH protein expression by western blot, while the second aliquot was subjected to qRT-PCR to examine c-Myb mRNA expression (a) The third aliquot was analyzed for NLK activity by kinase assay (b—upper) and ubiquitination assay (b—lower). Orange, blue and green bars represent the extent of NLK, Myb and raptor phosphorylation respectively. Values are expressed as a fold relative to activity in controls (shLuc/NT). White, grey and black bars designate the substrates NLK, c-Myb and raptor respectively with values designating the extent of ubiquitination observed of each substrate relative to control. (c and d) Kp53A1 cells alone, or transfected with plasmids expressing NT or siNLK were cultured for 30 h at 37 or 32° C. prior to lysis and western blotting for c-Myb, NLK and GAPDH. Myb mRNA levels were determined by qRT-PCR. (c) and NLK kinase assays and cell ubiquitination assays were performed as above. (e) Kp53A1 cells were cultured at 37 (grey bars) or 32° C. […]

CD11b+ myeloid cells = experiment: CD11b+ myeloid expansion of differentiating human cord blood CD34+ progenitors; assay type: cell-based; details: control (shLuc), exogenous TGFβ 5 ng/ml
Description: FIG. 7. SD208 increases erythroid expansion in human model of DBA through inhibition of NLK and not TGFβ. (a) Differentiating cord blood CD34+ progenitors were transduced with shRNA against luciferase or RPS19 and treated with inhibitors at working concentrations for TGFβ inhibition every three days. Cells were counted and CD235+ erythroid cells were assessed by flow cytometry after 15 days. (b) Prior to flow cytometry, 5000 cells per group were taken from differentiating cultures for NLK kinase assay. (c) CD34+ progenitors were transduced with shRNA against luciferase or RPS19 and non-targeting or siRNA against NLK. After sorting, samples were split into two groups and either treated with vehicle or SD208 every three days. After 15 days cells were counted and subject to flow cytometry to compare the expansion of maturing CD235+ erythroid (left panel) and CD11b+ myeloid cells (right panel). […] Cells were counted and CD235+ erythroid (D—upper) and CD11b+ myeloid cell (D—lower) percentages were determined by flow cytometry. The number of erythroid or myeloid cells is expressed as a percentage of the number of that lineage with no cytokine or drug treatment.
FIG. 9. […] Cells were counted and the percentage expressing CD235+ erythroid (left) and CD11b+ myeloid (right) was determined by flow cytometry. […] Values are expressed as a fold induction relative to untreated. (Panel C) Transduced and sorted CD34+ progenitors were cultured in methylcellulose in the presence or absence of metformin for 16 days and BFU-E erythroid (left) and CFU-GM myeloid (right) colonies scored. […] To directly compare the effect of metformin in each group, metformin-treated cultures were normalized to untreated cultures and are expressed as a fold induction of the untreated control. […]
Cells were incubated with human Fc receptor binding inhibitor (#14-9161-73; eBioscience) followed by primary antibodies CD235-APC (#306607; BioLegend) and CD11b-PE/Cy5 (#101209; BioLegend). Data were collected on a DxP10 flow cytometer (Cytek) and analyzed by using FlowJo Software, v.9.7.2.

CD235+ erythroblasts [4] = experiment: CD235+ erythroid expansion of differentiating human cord blood CD34+ progenitors (shRPS19/shRPL11 DBA models), flow cytometry; assay type: cell-based; details: control (shLuc), exogenous TGFβ 5 ng/ml
Description: FIG. 7. […] (a) Differentiating cord blood CD34+ progenitors were transduced with shRNA against luciferase or RPS19 and treated with inhibitors at working concentrations for TGFβ inhibition every three days. Cells were counted and CD235+ erythroid cells were assessed by flow cytometry after 15 days. (b) Prior to flow cytometry, 5000 cells per group were taken from differentiating cultures for NLK kinase assay. (c) CD34+ progenitors were transduced with shRNA against luciferase or RPS19 and non-targeting or siRNA against NLK. After sorting, samples were split into two groups and either treated with vehicle or SD208 every three days. After 15 days cells were counted and subject to flow cytometry to compare the expansion of maturing CD235+ erythroid (left panel) and CD11b+ myeloid cells (right panel). (d) Cord Blood CD34+ progenitors were transduced with shRNA against luciferase (left panel) or RPS19 (right panel) differentiated in erythroid media for 15 days alone, or in the presence of SB525334 or SD208 at 5 μM. Cells were counted and CD235+ erythroid (D—upper) and CD11b+ myeloid cell (D—lower) percentages were determined by flow cytometry. The number of erythroid or myeloid cells is expressed as a percentage of the number of that lineage with no cytokine or drug treatment.
FIG. 8. […] Human cord blood CD34+ progenitors were transduced with lentivirus co-expressing GFP with shRNA against luciferase (shLuc), RPS19 (shRPS19) or RPL11 (shRPL11). After 36 hours cells GFP+ cells were differentiated in erythroid media in the presence or absence of 5 μM SD208 for 15 days. Cells were counted and assessed for cell surface expression of CD235. (a) The percentage of CD235+ cells was multiplied by the cell count and values were compared as a percentage of untreated controls. (b) Normalizing values relative to untreated RPS19-insufficiency progenitors facilitates direct comparison of erythropoiesis between untreated and SD208-treated cultures. (c) Approximately 3000 cells were removed from differentiating treatments at day 6 and NLK activity was assessed. Values were normalized to reflect a fold induction relative to untreated controls. (d) Lin-Kit+ hematopoietic progenitors were obtained from three mouse embryos expressing tetracycline-inducible shRNA against RPS19 at day E14.5 or three untreated mice, and thee mature RPL11^+/+ or three mature RPL11^+/lox mice treated with tamoxifen for eight weeks. Cells were grown in the presence or absence of doxycycline and/or SD208 for eight days prior to counting and assessing for ter119 surface expression. Values were expressed as a percentage relative to untreated controls (e) and directly comparing the effect of SD208 on erythropoiesis in ribosomal-insufficiency by expressing values relative to untreated ribosome-insufficient cultures (f). At day 5 approximately 3000 cells were assayed for NLK kinase assay (g). CD34+ HSPCs were isolated from three healthy control and three DBA patient mononuclear bone marrow aspirates by magnetic bead sorting and differentiated in the presence or absence of SD208 for 14 days. After counting the total cell population, the ratio of CD235+ erythroblasts was determined by flow cytometry and number of CD235+ erythroblasts calculated. This was expressed as a percentage of the average number of erythroid cells present in untreated healthy controls. (h) The direct effect of SD208 on erythroid expansion in DBA patient samples was calculated following normalization of untreated DBA patient samples as 1-fold, (i) At day five, 3000 cells from each of the differentiating cultures was analyzed for NLK activity by kinase assay and are expressed as a fold induction relative to untreated healthy controls.

## Cc1cccc(-c2[nH]c(C(C)(C)C)nc2-c2ccc3c(c2)OCO3)n1 [SB505124]
CD235+ erythroblasts [1]; TGFβ-treated control and RPS19-insufficiency, 5 μM
  erythroid and myeloid expansion restored, % of cultures not treated with TGFβ: at least 95%

## CC(=O)N[C@@H](CSC(=O)[C@]1([C@@H](O)C(C)C)NC(=O)[C@H](C)[C@@H]1O)C(=O)O [lactacystin]
c-Myb [2]; Kp53A1, 16 hours post p53 activation, lactacystin 10 μM, chloroquine 30 μM
  c-Myb protein levels: sustained
c-Myb [2]; Kp53A1, after p53 activation, up to 48 h
  c-Myb phosphorylation: sustained phosphorylation to 48 h

## CN[C@@H]1C[C@H]2O[C@@](C)([C@@H]1OC)n1c3ccccc3c3c4c(c5c6ccccc6n2c5c31)C(=O)NC4 [staurosporine]
c-Myb [3]; 1 µM
  c-Myb phosphorylation, fold increase relative to controls: 1.3 fold
c-Myb [3]; Kp53A1 lysate with elevated p53 activity, 1 μM staurosporine, 7.4-fold without inhibitor
  c-Myb ubiquitination, fold of control: 2.3 fold

## TGFβ: exogenous TGFβ (5 ng/ml)
CD11b+ myeloid cells
  reduction of myeloid progenitors: 80%
CD235+ erythroblasts [4]
  reduction of erythroid progenitors: 85%
CD235+ erythroblasts [1]; RPS19-insufficient progenitors, exogenous TGFβ
  additional reduction of erythroid expansion: 86%
